{"source": "patent US20260185169A1", "about": "“MOLECULAR SIGNATURES TO PREDICT LONG-TERM LIVER FIBROSIS PROGRESSION” (THE BOARD OF REGENTS OF THE UNIVERSITY OF TEXAS SYSTEM, priority 2022, published 2026)", "tested_on": "FPS and molecular pathways", "assay": "Modulation of FPS and molecular pathways in hepatic transcriptome (RNA-Seq, CES/GSEI) in CENTAUR trial biopsies", "format": "in vivo, human", "settings": "for modulation of FPS genes: cenicriviroc arm", "source_text": "Archived formalin-fixed liver tissues from index biopsy were used for histological assessment in all patients (FIG. 1 and Table 1A-11) to confirm no to minimal fibrosis (METAVIR fibrosis stage F0 or F1). The PLS validation set 1 (and FPS derivation set 1) is a case-control series of 43 chronic hepatitis C patients from a prior cohort study consecutively diagnosed and followed at Johns Hopkins and Massachusetts General Hospital between 1998 and 2010. Twenty-five patients were co-infected with HIV and on anti-retroviral therapies. The patients were regularly followed up with ultrasound elastography at median interval of 1.1 (IQR: 0.6-2.0) years. Liver stiffness measurement >7.0 and >9.5 kPa were regarded as indication of F2 and F3 fibrosis, respectively. The PLS validation set 2 (and FPS derivation set 2) is a case-control series of 38 patients who consecutively underwent liver transplantation for HCV-related cirrhosis and protocol liver biopsies at year 1, 2, and 5 after transplantation (and additional biopsies as needed to evaluate graft rejection, which were excluded) at Baylor University between 2002 and 2007. Median number of biopsies was 8 (IQR: 6-9) per patient with median interval between serial biopsies of 8.6 (IQR: 0.3-12.6) months. […] The FPS derivation set 3 is a cross-sectional series of 31 NAFLD patients who underwent diagnostic liver biopsy at Hiroshima University between 2003 and 2015. The FPS derivation set 4 is a cross-sectional series of 309 NAFLD patients who underwent diagnostic liver biopsy (F0 or F1 fibrosis) at Massachusetts General Hospital between 2009 and 2016. […] The cases were defined as patients who had F-stage increase of one stage or more in the follow-up biopsy. The FPS validation set 2 includes 78 patients with fibrotic liver diseases from various etiologies, for which de-identified fresh liver tissues were available from standard-care hepatic resection for organotypic ex vivo tissue culture at University of Texas Southwestern and Mount Sinai. The FPS validation set 3 consists of NASH patients with F1-F3 fibrosis who underwent liver biopsy before and after 1-year treatment with cenicriviroc (n=9) or placebo (n=10) in the phase Ilb CENTAUR trial (NCT02217475). Decrease of one or more fibrosis stage was regarded as anti-fibrotic response. The serum surrogate FPS was assessed in archived de-identified serum samples from 79 patients with chronic liver diseases. The FPSec validation set is a cohort of 122 patients with compensated (Child-Pugh class A) cirrhosis patients with mixed etiologies enrolled at University of Michigan between 2004 and 2006 as reported in our previous study. Hepatic decompensation was defined as newly developed massive ascites, hepatic encephalopathy, bleeding from gastroesophageal varices, or liver transplantation. The study was approved by institutional review board at respective institutions with written informed consent or exemption for use of archived de-identified samples (protocol numbers: STU062018-058, STU072018-071, 2010P000220/PHS, HS13-00159).\nTotal RNA was isolated from fixed tissue sections by using High Pure RNA Paraffin kit (Roche), and assessed for quality by qRT-PCR of RPL13A. Total RNA from the PCLS tissues was isolated using RNeasy kit (Qiagen). RNA samples (100-200 ng) were subjected to the PLS/FPS assay implemented in the nCounter platform (NanoString), and transcriptome profiling of the CENTAUR trial samples was performed by RNA-Seq (TrueSeq RNA Access, Illumina). Expression of BCL2, COL1A1, and ACTA2 genes was measured by qRT-PCR (Table 3). Serum protein profiling was performed by using xMAP assay (Luminex). […]", "key": {"[1]": {"settings": "Fibrosis not improved, NASH patients, Hallmark set, Cellular signaling"}, "[2]": {"settings": "Fibrosis not improved, NASH patients, Hallmark set, Inflammatory response, immunity"}, "[3]": {"settings": "Fibrosis not improved, NASH patients, Hallmark set, Metabolism, biosynthesis"}, "[4]": {"settings": "Fibrosis not improved, NASH patients, Hallmark set, Pathogenic response"}, "[5]": {"settings": "Fibrosis not improved, NASH patients, Hallmark set, Sex hormone signaling"}, "[6]": {"settings": "Fibrosis not improved, NASH patients, Hallmark set, Stress response"}, "[7]": {"settings": "Fibrosis not improved, NASH patients, Immune cell signature (GSE65136)"}, "[8]": {"settings": "Fibrosis not improved, NASH patients, Nuclear receptor signaling (curated pathway members)"}, "[9]": {"settings": "Fibrosis not improved, NASH patients, PPAR agonists on mouse primary hepatocytes (GSE27948)"}}}
{"compound": "CCCCOCCOc1ccc(-c2ccc3c(c2)/C=C(/C(=O)Nc2ccc([S@@+]([O-])Cc4cncn4CCC)cc2)CCCN3CC(C)C)cc1", "note": "[Cenicriviroc]", "values": [{"measurement": "NES, Mitotic spindle gene set", "setting": "Fibrosis not improved, NASH patients, Hallmark set, Cell cycle, DNA damage, response", "value": 0.82}, {"measurement": "NES, Apoptosis gene set", "setting": "Fibrosis not improved, NASH patients, Hallmark set, Cell death", "value": 1.38}, {"measurement": "NES, E2F targets gene set", "setting": "[1]", "value": 1.88}, {"measurement": "NES, Hedgehog signaling gene set", "setting": "[1]", "value": 1.05}, {"measurement": "NES, KRAS signaling gene set", "setting": "[1]", "value": 1.63}, {"measurement": "NES, Myc targets v1 gene set", "setting": "[1]", "value": 2.19}, {"measurement": "NES, Myc targets v2 gene set", "setting": "[1]", "value": 1.55}, {"measurement": "NES, Notch signaling gene set", "setting": "[1]", "value": 0.84}, {"measurement": "NES, PI3K/AKT/mTOR signaling gene set", "setting": "[1]", "value": 1.43}, {"measurement": "NES, TGFβ signaling gene set", "setting": "[1]", "value": "−0.70"}, {"measurement": "NES, TNFα signaling via NF-κB gene set", "setting": "[1]", "value": 0.96}, {"measurement": "NES, Wnt/β-catenin signaling gene set", "setting": "[1]", "value": 0.87}, {"measurement": "NES, mTORC1 signaling gene set", "setting": "[1]", "value": 1.93}, {"measurement": "NES, p53 pathway gene set", "setting": "[1]", "value": 1.03}, {"measurement": "NES, Allograft rejection gene set", "setting": "[2]", "value": 2.25}, {"measurement": "NES, IL2 STAT5 signaling gene set", "setting": "[2]", "value": 1.70}, {"measurement": "NES, IL6 JAK STAT3 signaling gene set", "setting": "[2]", "value": 1.82}, {"measurement": "NES, Inflammatory response gene set", "setting": "[2]", "value": 1.61}, {"measurement": "NES, Interferon-α response gene set", "setting": "[2]", "value": 0.83}, {"measurement": "NES, Interferon-γ response gene set", "setting": "[2]", "value": 1.39}, {"measurement": "NES, Adipogenesis gene set", "setting": "[3]", "value": "−0.72"}, {"measurement": "NES, Bile acid metabolism gene set", "setting": "[3]", "value": "−1.36"}, {"measurement": "NES, Cholesterol homeostasis gene set", "setting": "[3]", "value": 0.99}, {"measurement": "NES, Coagulation gene set", "setting": "[3]", "value": 1.33}, {"measurement": "NES, Complement gene set", "setting": "[3]", "value": 1.37}, {"measurement": "NES, Fatty acid metabolism gene set", "setting": "[3]", "value": 0.73}, {"measurement": "NES, Glycolysis gene set", "setting": "[3]", "value": 1.43}, {"measurement": "NES, Heme metabolism gene set", "setting": "[3]", "value": "−0.95"}, {"measurement": "NES, Oxidative phosphorylation gene set", "setting": "[3]", "value": 1.16}, {"measurement": "NES, Peroxisome gene set", "setting": "[3]", "value": "−1.03"}, {"measurement": "NES, Protein secretion gene set", "setting": "[3]", "value": 1.30}, {"measurement": "NES, Xenobiotic metabolism gene set", "setting": "[3]", "value": 0.79}, {"measurement": "NES, Angiogenesis gene set", "setting": "[4]", "value": 1.64}, {"measurement": "NES, Epithelial mesenchymal transition gene set", "setting": "[4]", "value": 1.98}, {"measurement": "NES, Androgen response gene set", "setting": "[5]", "value": 1.63}, {"measurement": "NES, Estrogen response early gene set", "setting": "[5]", "value": 1.07}, {"measurement": "NES, Estrogen response late gene set", "setting": "[5]", "value": 1.18}, {"measurement": "NES, Hypoxia gene set", "setting": "[6]", "value": 1.67}, {"measurement": "NES, Myogenesis gene set", "setting": "[6]", "value": 1.73}, {"measurement": "NES, Reactive oxygen species gene set", "setting": "[6]", "value": 1.24}, {"measurement": "NES, UV response up gene set", "setting": "[6]", "value": 1.24}, {"measurement": "NES, Unfolded protein response gene set", "setting": "[6]", "value": 1.41}, {"measurement": "NES, B cell (naïve) gene set", "setting": "[7]", "value": 1.70}, {"measurement": "NES, CD4 T cell (naïve) gene set", "setting": "[7]", "value": 1.93}, {"measurement": "NES, CD8 T cell gene set", "setting": "[7]", "value": 2.31}, {"measurement": "NES, DC (activate) gene set", "setting": "[7]", "value": 1.75}, {"measurement": "NES, Gamma delta T cell gene set", "setting": "[7]", "value": 1.86}, {"measurement": "NES, Macrophage (M1) gene set", "setting": "[7]", "value": 1.70}, {"measurement": "NES, Macrophage (M2) gene set", "setting": "[7]", "value": 1.74}, {"measurement": "NES, Mast cell (active) gene set", "setting": "[7]", "value": 1.50}, {"measurement": "NES, Mast cell (rest) gene set", "setting": "[7]", "value": 1.71}, {"measurement": "NES, Memory B cell gene set", "setting": "[7]", "value": 1.67}, {"measurement": "NES, Memory T cell (rest) gene set", "setting": "[7]", "value": 2.25}, {"measurement": "NES, Monocyte gene set", "setting": "[7]", "value": 1.50}, {"measurement": "NES, NK cell (rest) gene set", "setting": "[7]", "value": 1.76}, {"measurement": "NES, Neutrophil gene set", "setting": "[7]", "value": 1.42}, {"measurement": "NES, Plasma cell gene set", "setting": "[7]", "value": 1.46}, {"measurement": "NES, Regulatory T cell gene set", "setting": "[7]", "value": 1.99}, {"measurement": "NES, T follicular helper cell gene set", "setting": "[7]", "value": 1.85}, {"measurement": "NES, FXR pathway gene set", "setting": "[8]", "value": "−1.04"}, {"measurement": "NES, PPAR signaling gene set (first listed)", "setting": "[8]", "value": "−0.88"}, {"measurement": "NES, PPAR signaling gene set (second listed)", "setting": "[8]", "value": "−1.00"}, {"measurement": "NES, PPARα pathway gene set (first listed)", "setting": "[8]", "value": "−0.62"}, {"measurement": "NES, PPARα pathway gene set (second listed)", "setting": "[8]", "value": "−0.77"}, {"measurement": "NES, RAR/RXR pathway gene set", "setting": "[8]", "value": "−1.49"}, {"measurement": "NES, RXR/VDR pathway gene set", "setting": "[8]", "value": "−1.71"}, {"measurement": "NES, GW7647 (PPARa agonist) gene set", "setting": "Fibrosis not improved, NASH patients, PPAR agonist on human primary hepatocytes (GSE53399)", "value": "−1.56"}, {"measurement": "NES, GW501516 (PPARd agonist) gene set", "setting": "[9]", "value": "−0.92"}, {"measurement": "NES, ROSIGLITAZONE (PPARg agonist) gene set", "setting": "[9]", "value": "−1.19"}, {"measurement": "NES, WY14643 (PPARa agonist) gene set", "setting": "[9]", "value": 1.17}, {"measurement": "NES, PDGFRB target gene signature", "setting": "Fibrosis not improved, NASH patients, iLINCS", "value": "−0.79"}, {"measurement": "modulation of RXR, RAR and FXR pathways", "setting": "both responders and non-responders", "value": "no obvious induction"}, {"measurement": "modulation of FPS genes", "setting": "patients with histological fibrosis improvement", "value": "suppressed or unchanged"}, {"measurement": "modulation of FPS genes", "setting": "patients with no fibrosis improvement", "value": "generally induced"}, {"measurement": "modulation of PPAR pathways", "setting": "fibrosis responders after 1-year treatment, non-responders lack it", "value": "enrichment"}, {"measurement": "modulation of E2F signaling", "setting": "fibrosis responders only", "value": "most strikingly suppressed"}, {"measurement": "PPAR α target gene signature (vs δ and γ agonist signatures)", "setting": "transcriptional target gene signatures defined in mouse primary hepatocyte", "value": "dominantly induced"}]}
